The record followed here is ChEMBL document CHEMBL1201862, “PubChem BioAssay data set” (2004).

The source made the active and inactive calls.

Test [1] concerns the target Heat shock protein HSP 90-alpha (Homo sapiens, UniProt P07900). It counts as functional, organism-based.
In the next test the test system is INS1. In words: beta cell apoptosis inhibitors, cytokine rescue, dose response, luminescence, retest (AID 449756).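 Note: cell death triggered by IL-1 beta plus TNF-alpha plus IFN-gamma mixture; protective hits raise ATP signal compared with cytokine alone wells.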 It counts as functional, cell-based. Particulars: Rattus norvegicus, INS1.
For test [2], the target named is T1, Mannose-6-phosphate isomerase (Homo sapiens, UniProt P34949).
T1 sequence (P34949 whole entry): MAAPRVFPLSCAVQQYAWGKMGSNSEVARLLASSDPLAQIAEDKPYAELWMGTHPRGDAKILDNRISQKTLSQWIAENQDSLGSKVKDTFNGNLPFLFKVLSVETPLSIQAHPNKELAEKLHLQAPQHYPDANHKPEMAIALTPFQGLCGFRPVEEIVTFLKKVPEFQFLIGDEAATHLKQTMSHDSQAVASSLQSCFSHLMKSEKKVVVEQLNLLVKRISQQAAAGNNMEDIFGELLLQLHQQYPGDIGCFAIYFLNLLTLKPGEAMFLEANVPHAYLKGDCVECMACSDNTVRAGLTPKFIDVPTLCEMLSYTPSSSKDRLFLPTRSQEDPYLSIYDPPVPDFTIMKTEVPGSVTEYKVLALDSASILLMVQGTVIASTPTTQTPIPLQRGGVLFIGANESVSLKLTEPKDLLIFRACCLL
In words: human PMI inhibitors, high substrate, primary screen, biochemical, fluorescence intensity, high mannose 6-phosphate (AID 1220).

For a further test, the system named is Streptococcus. As to the kind of experiment: Group A Streptococcus viability loss, dose response, counter-screen for streptokinase expression inhibitor project, luminescence, BacTiterGlo (AID 1915).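 Note: potency for reduction of bacterial viability or growth.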 Type of test: functional, organism-based.
The next test deals with T2, Protein RecA (Mycobacterium tuberculosis, UniProt P9WHJ3).
T2 sequence (P9WHJ3 whole entry): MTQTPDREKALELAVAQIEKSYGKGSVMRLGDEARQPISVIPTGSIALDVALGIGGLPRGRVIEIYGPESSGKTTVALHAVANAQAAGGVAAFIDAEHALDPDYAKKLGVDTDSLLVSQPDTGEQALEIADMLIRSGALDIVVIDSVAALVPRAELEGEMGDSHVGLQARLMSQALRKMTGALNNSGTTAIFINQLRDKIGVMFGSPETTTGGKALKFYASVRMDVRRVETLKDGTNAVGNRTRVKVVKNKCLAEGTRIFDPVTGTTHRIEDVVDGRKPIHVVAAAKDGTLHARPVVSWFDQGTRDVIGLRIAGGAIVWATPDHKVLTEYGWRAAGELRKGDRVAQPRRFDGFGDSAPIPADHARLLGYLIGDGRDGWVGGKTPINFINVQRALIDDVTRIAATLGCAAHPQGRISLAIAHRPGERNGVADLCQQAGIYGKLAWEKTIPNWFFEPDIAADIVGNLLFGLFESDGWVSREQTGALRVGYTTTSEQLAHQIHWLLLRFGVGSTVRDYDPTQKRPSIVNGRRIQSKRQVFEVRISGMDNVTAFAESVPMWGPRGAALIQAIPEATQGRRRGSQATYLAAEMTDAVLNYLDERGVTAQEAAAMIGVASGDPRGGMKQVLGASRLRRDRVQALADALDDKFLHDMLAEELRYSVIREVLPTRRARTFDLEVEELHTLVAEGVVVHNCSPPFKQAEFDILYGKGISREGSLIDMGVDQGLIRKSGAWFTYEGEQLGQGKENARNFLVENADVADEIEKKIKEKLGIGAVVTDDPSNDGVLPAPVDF
In words: Fluorescence Cell-Free Homogeneous Dose Retest to Identify Inhibitors of RecA-Intein Splicing Activity. [Related pubchem assays (depositor defined):AID2097, AID2223, AID489010, AID492950]. It counts as functional.

A further test concerns the target T3, Streptokinase A (Streptococcus pyogenes serotype M1, UniProt P10520).
T3 sequence (P10520 whole entry): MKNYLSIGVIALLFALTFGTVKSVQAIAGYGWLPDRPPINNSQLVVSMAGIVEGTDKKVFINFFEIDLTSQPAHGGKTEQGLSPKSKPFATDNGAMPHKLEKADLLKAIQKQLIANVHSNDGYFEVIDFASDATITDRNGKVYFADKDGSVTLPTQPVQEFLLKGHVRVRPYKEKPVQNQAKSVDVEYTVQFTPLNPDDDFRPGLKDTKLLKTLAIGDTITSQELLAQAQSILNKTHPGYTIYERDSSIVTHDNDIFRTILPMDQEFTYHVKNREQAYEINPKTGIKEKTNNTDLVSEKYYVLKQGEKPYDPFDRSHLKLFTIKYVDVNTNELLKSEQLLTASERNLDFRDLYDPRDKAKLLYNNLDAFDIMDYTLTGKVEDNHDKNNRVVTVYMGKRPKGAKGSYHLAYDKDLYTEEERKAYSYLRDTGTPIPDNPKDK
As to the kind of experiment: S. pyogenes streptokinase expression inhibitors, potency, dose response, plasminogen activation absorbance, OD405 (AID 1914).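 Note: secreted streptokinase activity via plasminogen activation per viability signal from cell pellet.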 It counts as functional, Streptococcus pyogenes M1 GAS.

Test [3] concerns the target T4, Replicative DNA helicase DnaB (Mycobacterium tuberculosis, UniProt P9WMR3).
T4 sequence (P9WMR3 whole entry): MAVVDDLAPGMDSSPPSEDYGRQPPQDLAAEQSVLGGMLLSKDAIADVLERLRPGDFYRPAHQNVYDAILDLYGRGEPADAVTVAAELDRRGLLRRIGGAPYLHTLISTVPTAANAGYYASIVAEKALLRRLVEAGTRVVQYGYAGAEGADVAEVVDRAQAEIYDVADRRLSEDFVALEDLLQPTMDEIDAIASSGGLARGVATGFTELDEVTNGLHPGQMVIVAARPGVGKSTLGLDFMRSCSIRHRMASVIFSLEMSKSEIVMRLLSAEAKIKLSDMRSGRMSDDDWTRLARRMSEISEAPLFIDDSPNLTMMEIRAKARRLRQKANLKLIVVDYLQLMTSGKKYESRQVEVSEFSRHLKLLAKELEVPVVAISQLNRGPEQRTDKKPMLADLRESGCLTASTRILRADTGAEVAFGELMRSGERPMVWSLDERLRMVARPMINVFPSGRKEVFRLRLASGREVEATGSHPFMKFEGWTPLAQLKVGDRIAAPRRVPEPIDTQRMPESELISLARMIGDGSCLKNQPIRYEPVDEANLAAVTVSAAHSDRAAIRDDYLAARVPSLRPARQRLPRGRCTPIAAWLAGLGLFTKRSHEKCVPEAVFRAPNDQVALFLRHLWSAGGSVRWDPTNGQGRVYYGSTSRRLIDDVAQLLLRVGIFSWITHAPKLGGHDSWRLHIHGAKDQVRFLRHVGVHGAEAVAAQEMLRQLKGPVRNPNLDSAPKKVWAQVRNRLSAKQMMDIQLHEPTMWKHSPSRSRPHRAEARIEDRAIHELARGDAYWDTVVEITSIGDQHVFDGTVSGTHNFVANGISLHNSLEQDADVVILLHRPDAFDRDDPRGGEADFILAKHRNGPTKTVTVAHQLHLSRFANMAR
As to the kind of experiment: DnaB intein splicing inhibitors, dose response, biochemical, cell-free fluorescence (AID 449749). Type of test: functional.

The nature of test [4]: cytotoxicity toward NIH3T3 fibroblasts, dose response, counter-screen, cell-based, ATP luminescence, mouse fibroblasts (AID 2010).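 Note: cells exposed to compound for about 90 hours before reading.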 Type of test: functional.
A short description of test [5]: growth suppression of PTEN-null colon cells, dose response, cell-based, HCT116 PTEN knockout (AID 1047).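 Note: HCT116 colon tumor cells with PTEN knocked out; cells exposed to compound for 60 hours before readout; potency for loss of cell viability measured by luminescence.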 It counts as functional.
The next test deals with Vero. As to the kind of experiment: Vero cell cytotoxicity, cytotoxicity control for flavivirus capping enzyme inhibitors (AID 588742). It counts as functional. Particulars: Chlorocebus sabaeus.
Test [6] is described as follows: growth suppression of beta-catenin-knockout colon cells, dose response, cell-based, HCT116, human colon tumor (AID 1045).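 Note: HCT116 colon tumor cells with beta catenin knocked out; cells exposed to compound for 60 hours.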 Type of test: functional.
Test [7] is described as follows: inhibitors of intracellular T. cruzi replication, confirmation, NIH3T3 host cells, beta-gal luminescence (AID 2044).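 Note: intracellular parasites grown in NIH/3T3 mouse fibroblasts as host cells; luminescent beta-galactosidase reporter signal from transgenic T. cruzi replicating inside host cells; inhibitors lower the luminescence signal.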 It counts as functional, cell-based.
In test [8] the test system is Streptococcus sp. 'group A'. In words: growth inhibition of control SK(-) GAS strain, dose response, counter-screen for streptokinase expression inhibitor project, luminescence, kanamycin, BacTiterGlo, confirmation (AID 1900). Type of test: functional, organism-based.
Another test addresses T5, Aspartyl aminopeptidase (Plasmodium falciparum 3D7, UniProt Q8I2J3).
T5 sequence (Q8I2J3 whole entry): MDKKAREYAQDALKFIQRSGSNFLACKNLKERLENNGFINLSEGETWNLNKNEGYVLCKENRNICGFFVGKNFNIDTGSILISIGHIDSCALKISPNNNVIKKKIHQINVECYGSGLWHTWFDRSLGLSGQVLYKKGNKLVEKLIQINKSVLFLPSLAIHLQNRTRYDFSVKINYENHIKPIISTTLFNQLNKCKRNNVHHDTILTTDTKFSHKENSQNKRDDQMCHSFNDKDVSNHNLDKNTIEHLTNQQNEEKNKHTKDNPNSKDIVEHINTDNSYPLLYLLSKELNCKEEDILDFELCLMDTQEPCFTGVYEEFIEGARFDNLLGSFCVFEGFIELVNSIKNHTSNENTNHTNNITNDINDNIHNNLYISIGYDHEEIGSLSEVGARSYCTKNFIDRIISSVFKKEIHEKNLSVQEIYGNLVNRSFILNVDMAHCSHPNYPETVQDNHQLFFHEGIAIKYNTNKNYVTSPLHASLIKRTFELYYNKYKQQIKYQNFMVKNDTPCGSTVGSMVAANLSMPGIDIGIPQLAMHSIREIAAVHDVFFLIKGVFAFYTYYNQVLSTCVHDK
In words: Counterscreen for inhibitors of M1 and M17 aminopeptidases: QFRET-based biochemical high throughput dose response assay for inhibitors of the Plasmodium falciparum M18 Aspartyl Aminopeptidase (PFM18AAP). [Related PubChem assays: 1619 (Screening assay (M17LAP inhibitors).), 1445 (Screening assay (M1AAP inhibitors).)].

Another test has as its target Procathepsin L (Homo sapiens, UniProt P07711). In words: cathepsin L inhibitors, dose response, counter-screen for M1/M17 aminopeptidase inhibitor project, biochemical, QFRET, 1536-well (AID 2214).
A further test has as its target T6, Leucine aminopeptidase (Plasmodium falciparum 3D7, UniProt Q8IL11).
T6 sequence (Q8IL11 whole entry): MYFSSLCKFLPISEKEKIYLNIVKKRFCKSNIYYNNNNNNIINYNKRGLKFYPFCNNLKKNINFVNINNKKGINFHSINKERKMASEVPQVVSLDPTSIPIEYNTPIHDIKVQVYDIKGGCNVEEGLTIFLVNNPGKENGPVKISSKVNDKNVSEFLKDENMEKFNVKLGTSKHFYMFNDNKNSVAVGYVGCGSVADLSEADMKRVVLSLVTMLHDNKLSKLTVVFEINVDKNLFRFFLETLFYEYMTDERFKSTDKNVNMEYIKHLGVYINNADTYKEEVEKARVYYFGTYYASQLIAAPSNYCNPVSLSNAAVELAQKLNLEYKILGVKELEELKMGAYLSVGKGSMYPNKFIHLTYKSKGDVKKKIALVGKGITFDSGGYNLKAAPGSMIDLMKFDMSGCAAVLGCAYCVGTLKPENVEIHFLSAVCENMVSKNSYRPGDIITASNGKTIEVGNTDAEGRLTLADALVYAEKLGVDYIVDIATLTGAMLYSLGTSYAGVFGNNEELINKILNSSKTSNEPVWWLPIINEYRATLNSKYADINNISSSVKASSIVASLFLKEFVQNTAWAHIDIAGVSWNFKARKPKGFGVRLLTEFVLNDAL
In words: P. falciparum M17LAP inhibitors, primary screen, biochemical, fluorogenic H-Leu-NHMec substrate, 1536-well (AID 1619). Type of test: functional.

Chain of Procathepsin L (P07711 whole entry): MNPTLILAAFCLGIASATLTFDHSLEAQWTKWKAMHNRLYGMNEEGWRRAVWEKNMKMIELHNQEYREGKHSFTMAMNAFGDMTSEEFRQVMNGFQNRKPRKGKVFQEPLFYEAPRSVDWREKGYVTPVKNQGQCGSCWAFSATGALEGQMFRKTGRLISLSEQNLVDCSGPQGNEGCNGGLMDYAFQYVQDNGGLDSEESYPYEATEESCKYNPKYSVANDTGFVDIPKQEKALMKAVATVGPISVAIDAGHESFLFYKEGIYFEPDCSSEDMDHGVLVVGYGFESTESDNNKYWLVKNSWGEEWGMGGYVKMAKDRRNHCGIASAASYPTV

In the case of `CC(=O)C1=C(c2ccc(Br)cc2)C(=O)c2ccccc2C1=O`, the AC50 in test [1] was 7.99 µM (active); in the test on INS1 it was 1.06 µM (active); in [3] it was 3.05 µM (active). Also, the half-maximal inhibitory concentration (IC50) in test [2] is 3.13 µM (active). Also, the EC50 in the test on Streptococcus was 9.4 µM (active); on Protein RecA, 1.94 µM (active); on Streptokinase A, 7.12 µM (active); in test [4] it was 2.42 µM (active); in test [5], 1.98 µM (active); in test [6], 1.81 µM (active). Also, the EC50 in [7] is 2.01 µM (active); in test [8] it was 1 µM (active). The CC50 with Vero is 9.68 µM (active).
Take `Cc1ccc(Nc2nnc(SC(C)C(=O)Nc3c(C)n(C)n(-c4ccccc4)c3=O)s2)cc1` (stereo unspecified): the IC50 on Aspartyl aminopeptidase is > 73.5 µM (not active); on Procathepsin L, > 59.6 µM (not active); at Leucine aminopeptidase, 3.86 µM (active).
